Measurements: EPA's ToxValDB 9.5
Several values for one entry are separate records, joined by “and”; a condition that tells them apart may be missing. Equal values may be shown once.

Test system: Rattus norvegicus
Conditions: for LC50 / LD50: acute
[1] = short-term, duration: 28 days, oral, gavage, Wistar
[2] = subchronic, duration: 90 days, oral, diet
[3] = reproduction developmental, duration: 83 days, oral, gavage, Sprague-Dawley

Compound: CCCCCCC([O-])CCCCCCCCCCC(=O)OC.[Li+] (stereo not given) [Lithium methyl 12-hydroxystearate]
- NOAEL (reproduction developmental, duration: 0 days, dermal, non-occlusive, F, Sprague-Dawley): > 2000 mg/kg-day
- NOAEL (reproduction developmental, duration: 10 weeks, dermal, non-occlusive, M, Fischer 344): < 500 mg/kg-day
- NOAEL (subchronic, duration: 13 weeks, dermal, non-occlusive, F, Sprague-Dawley): 500 mg/kg-day

Compound: CCC(C)(N)C#N (stereo not given) [2-Amino-2-methyl-butyronitrile]
- LC50 (inhalation, Crl:CD(SD) BR): 430 mg/m3 and 446 mg/m3 and 417 mg/m3
- LD50 (oral, gavage, Sprague-Dawley): 74 mg/kg

Compound: O=P(CCCl)(OCCCl)OCCCl [Bis(2-chloroethyl) 2-chloroethylphosphonate]
- LD50 (oral, gavage, Sprague-Dawley): 580 mg/kg and 810 mg/kg
- NOAEL (developmental, duration: 14 days, oral, gavage, Sprague-Dawley): ≤ 600 mg/kg-day
- NOAEL (reproduction developmental, duration: 14 days, oral, gavage, F, Sprague-Dawley): 400 mg/kg-day

Compound: CC(C)(C)c1cccc(C(C)(C)C)c1O [2,6-Di-tert-butylphenol]
- LD50 (oral, gavage): 6290 mg/kg
- LD50 (oral, gavage, Sprague-Dawley): > 5000 mg/kg
- NOAEL (developmental, oral, gavage, Wistar): > 750 mg/kg-day
- NOAEL (reproduction developmental, oral, gavage, Wistar): 150 mg/kg-day
- NOAEL [1]: 15 mg/kg-day

Compound: CCCCCCCC/C=C\CCCCCCCC(=O)OC[C@@H](OC(=O)CCCCCCC/C=C\CCCCCCCC)[C@H]1OC[C@H](O)[C@H]1OC(=O)CCCCCCC/C=C\CCCCCCCC [Sorbitan trioleate]
- LD50 (oral, gavage, Wistar): > 39800 mg/kg

Compound: CCCCCCC(C)(C)C(=O)OCC1CO1 (stereo not given) [Glycidyl neodecanoate]
- LD50 (dermal, Wistar): > 4000 mg/kg
- LD50 (oral, gavage, Wistar): > 10000 mg/kg

Compound: CCCCCCC(=O)OCCOCCOCCOCCOC(=O)CCCCCC [Tetraethylene glycol diheptanoate]
- LD50 (oral, gavage, ChR:CD): > 25000 mg/kg
- LD50 (oral, gavage, ChRCD): > 25000 mg/kg
- LD50 (oral, gavage, Crl:CD(SD)): > 24500 mg/kg
- LD50 (oral, gavage, Wistar): > 2000 mg/kg
- LOAEL (short-term, duration: 4 weeks, inhalation, Wistar): 1.1 mg/L
- NOAEL [1]: 1000 mg/kg-day

Compound: CCCCCCCCCCCCCOC(=O)CCSCCC(=O)OCCCCCCCCCCCCC [Di(tridecyl) thiodipropionate]
- LD50 (oral): > 2000 mg/kg

Compound: CC12CCCCC1C(=O)OC2=O (stereo not given) [Methylhexahydrophthalic anhydride]
- LD50 (oral): 3300 mg/kg

Compound: CC(C)(c1ccccc1)c1ccc(Nc2ccc(C(C)(C)c3ccccc3)cc2)cc1
- LC50 (oral, gavage): > 10000 mg/kg

Compound: C=C(C)CC [2-Methylbutene]
- LC50 (inhalation, Wistar): > 61000 ppm
- NOAEL (reproduction developmental, inhalation, Sprague-Dawley): 7000 ppm

Compound: Clc1nc(Cl)c(Cl)c(Cl)c1Cl [Pentachloropyridine]
- LD50 (oral, gavage, Fischer 344): 435 mg/kg
- NOAEL (reproduction developmental, duration: 15 days, oral, gavage, F, Sprague-Dawley): 50 mg/kg-day
- LOAEL [2]: 30 mg/kg-day
- NOAEL [2]: 10 mg/kg-day

Compound: OCCCO [1,3-Propanediol]
- LD50 (oral, gavage, Wistar): 15.8 mg/kg

Compound: CC(=O)O.CC(C)CCCCCCCOCCCN [1-Propanamine, 3-(isodecyloxy)-, acetate]
- LD50 (oral, gavage, Sprague-Dawley): 1030 mg/kg and 1460 mg/kg and 1220 mg/kg

Compound: CC(C)N.CCCCCCCCCC(CC)c1ccc(S(=O)(=O)O)cc1 (stereo not given) [Isopropylammonium dodecylbenzenesulfonate]
- LD50 (oral): 1840 mg/kg
- LD50 (oral, gavage, Sprague-Dawley): 1300 mg/kg

Compound: COc1cc(NC(=O)C(N=Nc2ccc(-c3ccc(N=NC(C(C)=O)C(=O)Nc4cc(OC)c(Cl)cc4OC)c(Cl)c3)cc2Cl)C(C)=O)c(OC)cc1Cl (stereo not given) [C.I. Pigment Yellow 83]
- LD50 (oral, gavage): > 1750 mg/kg
- NOAEL (chronic, duration: 104 weeks, oral, gavage, Sprague-Dawley): 630 mg/kg-day

Compound: O=[N+]([O-])c1ccc(C=Cc2ccc([N+](=O)[O-])cc2S(=O)(=O)[O-])c(S(=O)(=O)[O-])c1.[Na+].[Na+] [Disodium 4,4'-dinitro-2,2'-stilbenedisulfonate]
- LD50 (oral): > 16000 mg/kg

Compound: O=C(O)c1cccc(C(=O)O)c1 [1,3-Benzenedicarboxylic acid]
- NOAEL (developmental, duration: 10 days, Inhalation, Sprague-Dawley): > 10 mg/m3

Compound: CC(C)CCCCCCCOC(=O)CCCCCCCC(=O)OCCCCCCCC(C)C [Diisodecyl azelaate]
- LD50 (oral, gavage, Wistar): > 2000 mg/kg

Compound: Cc1ccc(C)c(O)c1C [2,3,6-Trimethylphenol]
- LD50 (oral, gavage): > 2000 mg/kg

Compound: N#Cc1nc(Cl)c(Cl)c(Cl)c1Cl [3,4,5,6-Tetrachloropyridine-2-carbonitrile]
- LD50 (oral, gavage): ≥ 1000 mg/kg and ≤ 2000 mg/kg

Compound: CCCCCCCCC(=O)Oc1ccccc1S(=O)(=O)[O-].[Na+] [Sodium (nonanoyloxy)benzenesulfonate]
- LOAEC [3]: 100 mg/kg-day
- NOAEL [3]: 1000 mg/kg-day

Compound: O=S(=O)([O-])CCO.[Na+] [Sodium 2-hydroxyethanesulfonate]
- LD50 (oral, gavage, Wistar): > 5000 mg/kg

Compound: CC(C)(CO)CO [2,2-Dimethylpropane-1,3-diol]
- LD50 (oral): 3200 mg/kg
- NOAEL (reproduction developmental, oral, Sprague-Dawley, generation: F0): 1000 mg/kg-day
- NOAEL (reproduction developmental, oral, Sprague-Dawley, generation: F1): 1000 mg/kg-day
- NOAEL (reproduction developmental, oral, gavage, Sprague-Dawley): 100 mg/kg-day
- NOAEL (short-term, duration: 2 weeks, oral, gavage, Wistar): 1000 mg/kg-day
